Laboratory results from patent publication US8916709B2, “1,2,4-oxadiazole and 1,2,4-thiadiazole β-lactamase inhibitors” (priority 2012, dated 2014).
Structures can show the parent of a compound that is named as a salt.

Assays:
[1] = system: bacterial strains that express OXA-15 β-lactamases; assay: Standard BLI potentiation MIC / synergy MIC assays, strains expressing OXA-15; assay type: cell-based, E. coli; conditions: in combination with a β-lactam; versus Avibactam (comparator compound CCC)
Excerpt: (§1) A set of β-lactamase expressing isogenic E. coli strains was constructed by cloning a β-lactamase gene into a customized derivative of pBR322 (GenBank Accession Number J01749) and transforming the engineered plasmids into E. coli. The NdeI restriction site within the plasmid backbone of pBR322 was removed to generate pBR322ΔNdeI. The pBR322ΔNdeI vector itself, minus the blaTEM-1 gene, was amplified using two primers: (1) pBR-Pbla 5′-[…]-3, SEQ ID 1, a primer with an engineered NdeI restriction site at the 3′ end of the blaTEM-1 promoter and (2) pBR-vec-1 5′-[…]-3′, SEQ ID 2, a primer with an engineered BamHI restriction site at the 3′ end of the blaTEM-1 open reading frame. The chloramphenicol resistance gene, cat, was generated by PCR amplification from pKD3 (GenBank Accession Number AY048742) using primers with an engineered NdeI restriction site at the 5′ end (Pbla-cat 5′-[…]-3′, SEQ ID 3) and an engineered BamHI restriction site at the 3′ end (Vec-1-cat 5′-[…]-3′, SEQ ID 4) of the resistance gene. The two PCR products, pBR322ΔNdeI and cat were ligated together generating pBR-CBST (pBR322ΔNdeI ΔTEM-1::cat Seq. ID 5) which retains both the pBR322 tetracycline resistance cassette, tetA, and the plasmid origin of replication but the blaTEM-1 gene was replaced by the cat gene.
(§2) Using this engineering strategy a number of plasmids producing β-lactamase genes from different classes (see below) were generated using synthetic genes with an engineered NdeI restriction site at the 5′ end and BamHI restriction site at the 3′ end of each gene (GenScript). Both the synthetic β-lactamase genes and cat gene were ligated into the NdeI/BamHI sites of the pBR322ΔNdeI PCR product and transformed into electrocompetent E. coli ElectroMax DH10B (Invitrogen/Life Technologies). E. coli DH10B harboring the recombinant plasmids were selected on LB agar (supplemented with 25 μg/mL tetracycline) and single isolated colonies were then inoculated into 5 mL LB media (supplemented with 25 μg/mL tetracycline), and incubated at 37° C. with aeration (250 rpm) for 18 hrs. The cultures were frozen back at −80° C. in 20% glycerol. The DNA sequence of the cloned β-lactamase genes was confirmed. The β-lactamase gene expression in the recombinant E. coli strains was driven by the blaTEM-1 promoter in the pBR-CBST plasmid and was characterized by MIC profiling of the E. coli recombinant strains against comparator β-lactam/BLI combinations in broth microdilution assay. […]

[2] = system: bacterial strains that express KPC β-lactamases; assay: Standard BLI potentiation MIC / synergy MIC assays, strains expressing KPC; assay type: cell-based; conditions: in combination with a β-lactam; versus Avibactam
Excerpt: as §1, §2

**Q.** Which “activity against strains that express OXA-15 β-lactamases compared with Avibactam” value [1] does the source give for Nc1nc([C@@H]2CC[C@@H]3CN2C(=O)N3OS(=O)(=O)O)no1 [Compound 805, (2S,5R)-2-(5-amino-1,2,4-oxadiazol-3-yl)-7-oxo-1,6-diazabicyclo[3.2.1]octan-6-yl hydrogen sulfate] here?
**A.** Its value is “more active than Avibactam”.

**Q.** And the “activity / spectrum of activity against strains that express KPC β-lactamases compared with Avibactam” value [2]?
**A.** The value was “more active than, and/or show a better spectrum of activity than Avibactam”.

**Q.** Which results are given for O=C1N2C[C@@H](CC[C@H]2c2ncon2)N1OS(=O)(=O)O [Compound 804, (2S,5R)-2-(1,2,4-oxadiazol-3-yl)-7-oxo-1,6-diazabicyclo[3.2.1]octan-6-yl hydrogen sulfate]?
**A.** activity against strains that express OXA-15 β-lactamases compared with Avibactam [1]: more active than Avibactam; activity / spectrum of activity against strains that express KPC β-lactamases compared with Avibactam [2]: more active than, and/or show a better spectrum of activity than Avibactam

**Q.** Which results are given for CCCC[N+](CCCC)(CCCC)CCCC.Nc1noc([C@@H]2CC[C@@H]3CN2C(=O)N3OS(=O)(=O)[O-])n1 [Compound 802, (2S,5R)-2-(3-amino-1,2,4-oxadiazol-5-yl)-7-oxo-1,6-diaza-bicyclo[3.2.1]octan-6-yl tetrabutylaminooxy sulfonate]?
**A.** activity against strains that express OXA-15 β-lactamases compared with Avibactam [1]: more active than Avibactam; activity / spectrum of activity against strains that express KPC β-lactamases compared with Avibactam [2]: more active than, and/or show a better spectrum of activity than Avibactam

**Q.** Which results are given for O=C1N2C[C@@H](CC[C@H]2c2ncno2)N1OS(=O)(=O)O [Compound 801, (2S,5R)-2-(1,2,4-oxadiazol-5-yl)-7-oxo-1,6-diazabicyclo[3.2.1]octan-6-yl hydrogen sulfate]?
**A.** activity against strains that express OXA-15 β-lactamases compared with Avibactam [1]: more active than Avibactam; activity / spectrum of activity against strains that express KPC β-lactamases compared with Avibactam [2]: more active than, and/or show a better spectrum of activity than Avibactam
